Laboratory results from patent US20250230147A1, “LACTAMS AS CBL-B INHIBITORS” (Genentech, Inc., priority 2021, published 2025).

What was measured:
rat hepatocytes = experiment: Hepatocyte metabolic stability, rat; assay type: in vitro ADME; conditions: 1.0 μM compound, 0.5 million cells/mL
Protocol: (§1) Metabolic stability assays of test compounds were evaluated in cryopreserved pooled rat, mouse, dog, and cynomolgus monkey hepatocytes (CellzDirect; Durham, NC, USA). Membrane integrity of the cells was assessed by trypan blue exclusion. Test compounds (1.0 μM with 0.1% dimethylsulfoxide) were incubated with cells (0.5 million cells/mL) at 37° C. in a 95% air/5% CO2 atmosphere for 0, 20, 40, or 60 minutes. Concentrations of test compounds in hepatocyte incubations were determined by LC/MS/MS. Intrinsic clearance was determined using a substrate depletion method and scaled to hepatic clearance using the well-stirred model as described above for the liver microsomes metabolic stability assays.

[1] = Liver microsomes metabolic stability, mouse; assay type: in vitro ADME; conditions: 1 μM compound, 0.5 mg/mL microsomal protein
Protocol: (§2) Metabolic stability of test compounds was evaluated in pooled rat, mouse, dog, and cynomolgus monkey liver microsomes (BD Biosciences, San Jose, CA). The incubation conditions were as follows: 1 μM of the tested compound, 1 mM NADPH, 0.5 mg/mL microsomal protein in 0.1 M potassium phosphate buffer (pH 7.4). Following a 5-minute pre-incubation period, the enzymatic reactions were initiated by the addition of NADPH and test compound to the microsomes diluted in phosphate buffered saline. The mixtures were incubated at 37° C. for 0, 20, 40, and 60 min.
(§3) Compound concentrations were assessed by LC-MS/MS. Intrinsic clearance based upon microsomal stability data was determined using a substrate depletion method and scaled to hepatic clearance using the well-stirred model (Obach, R. S.; Baxter, J. G.; Liston, T. E.; Silber, B. M.; Jones, B. C.; Macintyre, F.; Rance, D. J.; Wastall, P., “The Prediction of Human Pharmacokinetic Parameters from Preclinical and in vitro Metabolism Data”, J. Pharmacol. Exp. Ther., (1997), 283 (1), 46-58).

c-Cbl = c-Cbl (Homo sapiens (Human), UniProt P22681); experiment: C-Cbl LCK Ub TR-FRET assay (c-cbl Lck HTRF); assay type: biochemical
In short: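 Detection reagents added, brief spin, 20 min RT. IC50 fit normalized to no-LCK (low) and DMSO (high) controls.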

Cbl-b = Cbl-b (Homo sapiens (Human), UniProt Q13191); experiment: Cbl-b LCK Ub TR-FRET assay (Cbl-b Lck HTRF); assay type: biochemical
In short: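 TR-FRET (340 nm excitation, 615/665 nm emission) read after adding HA-ubiquitin–UBE2D2 thioester, anti-HA-D2 and streptavidin-Eu. Beforehand, compounds incubated 60 min with biotinylated Cbl-b, then 90 min with His-LCK and ATP (1 mM in 2× mix); IC50 from 10 concentrations, DMSO high and no-LCK low controls.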

[2] = Liver microsomes metabolic stability, dog; assay type: in vitro ADME; conditions: 1 μM compound, 0.5 mg/mL microsomal protein
Protocol: as §2, §3

[3] = In vivo pharmacokinetics, mouse; set-up: species or system CD-1 mice; conditions: male, CD-1, plasma
Protocol: The pharmacokinetics of test compounds were evaluated following a single intravenous bolus (IV) of solution at a dose of 0.2-1 mg/kg and oral administration (PO) of solution/suspension at doses of 1-5 mg/kg in male cynomolgus monkey, beagle dogs, Sprague Dawley rats, or CD-1 mice using a parallel study design. Blood samples for the IV dose group were collected prior to administration (predose) and at 0.033, 0.083, 0.25, 0.5, 1, 3, 6, 9 and 24 hours post dose. Blood samples for PO dose groups were collected prior to administration (predose) and at 0.083, 0.25, 0.5, 1, 3, 6, 9 and 24 hours post dose. For the IV group, urine was collected from each animal at predose and from 0-6 and 6-24 hours post dose. The vehicle used for IV dose groups was a combination of PEG400 with citrate buffer (pH 5.0) or PEG400/Cremphor with DMSO/H2O, and for PO groups was MCT.
Plasma and urine concentrations were quantitated at Genentech Inc. using a non-validated LC/MS/MS method. The lower limit of quantitation (LLOQ) of the plasma and urine assays was 0.005 μM. PK parameters were determined by non-compartmental methods using WinNonlin (version 5.2, Pharsight Corporation, Mountain View, CA).

mouse hepatocytes = experiment: Hepatocyte metabolic stability, mouse; assay type: in vitro ADME; conditions: 1.0 μM compound, 0.5 million cells/mL
Protocol: as §1

[4] = Liver microsomes metabolic stability, rat; assay type: in vitro ADME; conditions: 1 μM compound, 0.5 mg/mL microsomal protein
Protocol: as §2, §3

Chain of c-Cbl (P22681 47-435): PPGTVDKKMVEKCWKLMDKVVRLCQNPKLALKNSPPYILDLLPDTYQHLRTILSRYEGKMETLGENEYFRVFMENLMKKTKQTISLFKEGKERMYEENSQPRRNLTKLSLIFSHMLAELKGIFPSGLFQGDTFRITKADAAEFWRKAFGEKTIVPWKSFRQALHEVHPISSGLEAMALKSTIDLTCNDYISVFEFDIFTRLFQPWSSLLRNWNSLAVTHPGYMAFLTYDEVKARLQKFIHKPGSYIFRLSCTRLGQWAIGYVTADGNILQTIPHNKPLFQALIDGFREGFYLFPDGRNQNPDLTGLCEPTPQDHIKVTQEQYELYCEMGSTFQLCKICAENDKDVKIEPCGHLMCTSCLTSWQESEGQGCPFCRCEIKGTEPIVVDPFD
Chain of Cbl-b (Q13191 40-426): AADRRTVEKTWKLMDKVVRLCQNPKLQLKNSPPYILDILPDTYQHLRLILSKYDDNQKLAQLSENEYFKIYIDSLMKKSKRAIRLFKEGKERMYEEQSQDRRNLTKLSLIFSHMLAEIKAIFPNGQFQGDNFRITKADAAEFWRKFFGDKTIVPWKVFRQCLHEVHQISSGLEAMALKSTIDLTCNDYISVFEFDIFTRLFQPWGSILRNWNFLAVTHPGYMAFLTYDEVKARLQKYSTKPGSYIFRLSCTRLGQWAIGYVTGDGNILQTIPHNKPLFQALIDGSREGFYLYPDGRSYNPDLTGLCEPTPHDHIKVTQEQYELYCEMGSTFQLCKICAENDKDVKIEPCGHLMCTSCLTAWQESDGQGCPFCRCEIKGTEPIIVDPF

With `Cn1cnnc1[C@H](F)C1(c2cccc(N3Cc4c(cc(CN5CC6CC5C6)cc4C(F)(F)F)C3=O)c2)COC1` [Compound 86, (R)-6-((2-azabicyclo[2.1.1]hexan-2-yl)methyl)-2-(3-(3-(fluoro(4-methyl-4H-1,2,4-triazol-3-yl)methyl)oxetan-3-yl)phenyl)-4-(trifluoromethyl)isoindolin-1-one] the “Hepatocyte Pred. CLhep (mL/min/kg) Rat/Mouse/Dog” value (rat hepatocytes) was 12 mL/min/kg, the “Liver microsomes Pred. CLhep (mL/min/kg) Rat/Mouse/Dog” value [1] was 27 mL/min/kg and the IC50 (c-Cbl) was 270 nM. For the same compound, the “(fold-selectivity)” value (c-Cbl; C-cbl Lck HTRF IC50 relative to Cbl-b Lck HTRF IC50) was 2.1x, the IC50 (Cbl-b) was 130 nM and the “Liver microsomes Pred. CLhep (mL/min/kg) Rat/Mouse/Dog” value [2] was 14 mL/min/kg. For the same compound, the bioavailability ([3]; PO 1-5 mg/kg, read-out: Oral Bioavailability (F %)) was 2%, the clearance ([3]; single intravenous bolus 0.2-1 mg/kg, read-out: Mouse CL) was 40 mL/min/kg and the “Hepatocyte Pred. CLhep (mL/min/kg) Rat/Mouse/Dog” value (mouse hepatocytes) was 36 mL/min/kg. For the same compound, the “Liver microsomes Pred. CLhep (mL/min/kg) Rat/Mouse/Dog” value [4] was 7 mL/min/kg.
